One assay has as its system EGFR G719X/T790M. Description: In vitro sensitivity of T790M acquired with an exon 18 point mutation. Type of assay: cell-based. The following applies: T790M acquired with an exon 18 point mutation (G719X/T790M). The method, then: Thus, in certain aspects, the subject is determined to not have a mutation at EGFR C797 and/or T790, such as C797S and/or T790M. […] However, in certain aspects, L858R/T790M/C797S, Exon 19 deletion/T790M/C797s, and exon 20 insertions+ C797S or T790M mutants are resistant to EGFR TKIs.

For assay [1], the target named is T1, Ba/F3 cells expressing EGFR A767insASV (Homo sapiens, UniProt P00533, DUP767-769, cells depend on it).
T1 construct: A767insASV|N/A|N/A|Addgene #32066
T1 sequence (P00533 with tags, fused parts or gaps DUP767-769): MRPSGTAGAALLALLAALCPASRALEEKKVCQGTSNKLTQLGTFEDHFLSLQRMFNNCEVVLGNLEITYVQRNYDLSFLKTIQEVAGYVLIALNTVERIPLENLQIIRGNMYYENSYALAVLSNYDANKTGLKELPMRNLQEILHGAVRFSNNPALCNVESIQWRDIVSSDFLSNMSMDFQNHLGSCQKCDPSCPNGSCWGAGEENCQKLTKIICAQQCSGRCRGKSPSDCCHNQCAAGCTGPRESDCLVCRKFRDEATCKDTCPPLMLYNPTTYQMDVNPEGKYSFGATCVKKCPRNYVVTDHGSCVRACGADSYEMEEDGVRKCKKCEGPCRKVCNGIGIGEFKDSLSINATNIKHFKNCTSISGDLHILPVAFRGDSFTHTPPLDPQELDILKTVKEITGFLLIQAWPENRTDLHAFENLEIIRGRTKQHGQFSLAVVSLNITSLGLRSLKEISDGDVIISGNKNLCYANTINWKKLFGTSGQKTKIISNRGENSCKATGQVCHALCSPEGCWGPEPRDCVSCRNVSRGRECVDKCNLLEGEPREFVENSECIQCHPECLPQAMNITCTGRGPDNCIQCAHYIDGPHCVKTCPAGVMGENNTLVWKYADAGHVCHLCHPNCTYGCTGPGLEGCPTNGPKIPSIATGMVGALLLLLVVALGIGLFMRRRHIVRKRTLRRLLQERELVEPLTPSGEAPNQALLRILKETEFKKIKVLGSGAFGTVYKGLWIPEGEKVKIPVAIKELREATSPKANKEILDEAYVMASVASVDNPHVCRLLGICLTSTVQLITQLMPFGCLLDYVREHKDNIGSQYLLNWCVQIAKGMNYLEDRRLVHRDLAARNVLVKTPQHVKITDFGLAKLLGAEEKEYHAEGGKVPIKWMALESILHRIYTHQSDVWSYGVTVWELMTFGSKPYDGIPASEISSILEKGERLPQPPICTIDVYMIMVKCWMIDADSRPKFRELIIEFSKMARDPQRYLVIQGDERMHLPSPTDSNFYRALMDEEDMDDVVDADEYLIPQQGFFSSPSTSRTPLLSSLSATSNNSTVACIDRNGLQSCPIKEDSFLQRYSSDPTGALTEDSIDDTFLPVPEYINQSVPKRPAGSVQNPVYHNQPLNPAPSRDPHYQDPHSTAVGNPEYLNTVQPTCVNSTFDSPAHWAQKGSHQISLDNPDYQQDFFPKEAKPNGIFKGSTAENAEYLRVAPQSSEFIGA
Description: Cell viability (Cell Titer Glo), Ba/F3 cells expressing A767insASV. Conditions: 72 hours of treatment, read-out: IC50 values, nM Average. Format: cell-based. The method, then: Cell viability was determined by the Cell Titer Glo assay.
Briefly, stable Ba/F3 cell lines were generated by retroviral transduction of Ba/F3 cell line for 12 hours. […] Three days after transduction, 2 μg/ml puromycin (Invitrogen) was added to the RPMI media. Cell lines were then grown in the absence of IL-3 for two weeks and cell viability was assessed every three days using the Cell Titer Glo assay (Progema).
Briefly, 2000-3000 cells per well were plated in 384-well plates (Greiner Bio-One) in technical triplicate. Cells were treated with seven different concentrations of tyrosine kinase inhibitors or vehicle alone at a final volume of 40 μL per well. After 3 days, 11 μL of Cell Titer Glo was added to each well. Plates were shaken for 15 minutes, and bioluminescence was determined using a FLUOstar OPTIMA multi-mode micro-plate reader (BMG LABTECH). Bioluminescence values were normalized to DMSO treated cells, and normalized values were plotted in GraphPad Prism using non-linear regression fit to normalized data with a variable slope.

Each structure is given as a SMILES string.

Regarding `C=CC(=O)N1CCC(Oc2cc3c(Nc4ccc(Cl)c(Cl)c4F)ncnc3cc2OC)CC1` [Poziotinib, 1-[4-[4-(3,4-dichloro-2-fluoroanilino)-7-methoxyquinazolin-6-yl]oxypiperidin-1-yl]prop-2-en-1-one], in the assay on EGFR G719X/T790M, the sensitivity in vitro entry is given as “remain sensitive”. Moreover, in assay [1], the GI50 is 1.62 nM.

These data come from patent US20220175779A1, “COMPOUNDS AGAINST CANCER BEARING TYROSINE KINASE INHIBITOR RESISTANT EGFR MUTATIONS” (Board of Regents, The University of Texas System, priority 2019, published 2022).
